# Assay results as given in the supplement of paper PMC10307832.
# Legend:
# Test in all cases: relative viability (nuclei count vs DMSO), 5 days (fraction); higher = more cells survive
# UMC-11 = system: UMC-11
# Summary of the method: (§1)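 Five library-drug doses in √10 steps were combined with a fixed anchor-drug dose, or a single drug was given alone, by pin tool to lung cancer cell lines in 1536-well plates the day after seeding. Nuclei were stained and counted after 5 days. Relative viability is the nuclei count in treated wells over that in vehicle wells, taken as the median of duplicate plates.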
# NCI-H358 = system: NCI-H358
# Summary of the method: as §1
# SK-LU-1 = system: SK-LU-1
# Summary of the method: as §1
# NCI-H1734 = system: NCI-H1734
# Summary of the method: as §1
# NCI-H2228 = system: NCI-H2228
# Summary of the method: as §1
# HCC-78 = system: HCC-78
# Summary of the method: as §1
# NCI-H1975 = system: NCI-H1975
# Summary of the method: as §1
# NCI-H727 = system: NCI-H727
# Summary of the method: as §1
# NCI-H1355 = system: NCI-H1355
# Summary of the method: as §1
# NCI-H2085 = system: NCI-H2085
# Summary of the method: as §1
# NCI-H2126 = system: NCI-H2126
# Summary of the method: as §1
# PC-14 = system: PC-14
# Summary of the method: as §1
# 201T = system: 201T
# Summary of the method: as §1
# NCI-H647 = system: NCI-H647
# Summary of the method: as §1
# NCI-H1395 = system: NCI-H1395
# Summary of the method: as §1
# LU99A = system: LU99A
# Summary of the method: as §1
# HCC-44 = system: HCC-44
# Summary of the method: as §1
# LOU-NH91 = system: LOU-NH91
# Summary of the method: as §1
# HCC-366 = system: HCC-366
# Summary of the method: as §1
# NCI-H2087 = system: NCI-H2087
# Summary of the method: as §1
# SK-MES-1 = system: SK-MES-1
# Summary of the method: as §1
# BEN = system: BEN
# Summary of the method: as §1
# NCI-H322M = system: NCI-H322M
# Summary of the method: as §1
compound,measurement,setting,value
Oc1nc(-c2ccc(C(F)(F)F)cc2)nc2c1CSCC2 [XAV939] + CC(=O)Nc1cccc(-n2c(=O)n(C3CC3)c(=O)c3c(Nc4ccc(I)cc4F)n(C)c(=O)c(C)c32)c1 [Trametinib] (partner 0.02 µM),relative viability,UMC-11; first compound 0.08 µM,0.692
same,relative viability,UMC-11; first compound 0.253 µM,0.703
same,relative viability,UMC-11; first compound 0.8 µM,0.879
same,relative viability,UMC-11; first compound 2.53 µM,0.632
same,relative viability,NCI-H358; first compound 0.08 µM,0.139
same,relative viability,NCI-H358; first compound 0.253 µM,0.134
same,relative viability,NCI-H358; first compound 0.8 µM,0.122
same,relative viability,NCI-H358; first compound 2.53 µM,0.108
same,relative viability,SK-LU-1; first compound 0.08 µM,0.537
same,relative viability,SK-LU-1; first compound 0.253 µM,0.44
same,relative viability,SK-LU-1; first compound 0.8 µM,0.543
same,relative viability,SK-LU-1; first compound 2.53 µM,0.582
same,relative viability,NCI-H1734; first compound 0.08 µM,0.77
same,relative viability,NCI-H1734; first compound 0.253 µM,0.616
same,relative viability,NCI-H1734; first compound 0.8 µM,0.593
same,relative viability,NCI-H1734; first compound 2.53 µM,0.647
same,relative viability,NCI-H2228; first compound 0.08 µM,0.429
same,relative viability,NCI-H2228; first compound 0.253 µM,0.488
same,relative viability,NCI-H2228; first compound 0.8 µM,0.541
same,relative viability,NCI-H2228; first compound 2.53 µM,0.571
same,relative viability,HCC-78; first compound 0.08 µM,0.827
same,relative viability,HCC-78; first compound 0.253 µM,0.642
same,relative viability,HCC-78; first compound 0.8 µM,0.842
same,relative viability,HCC-78; first compound 2.53 µM,0.535
same,relative viability,NCI-H1975; first compound 0.08 µM,0.359
same,relative viability,NCI-H1975; first compound 0.253 µM,0.296
same,relative viability,NCI-H1975; first compound 0.8 µM,0.35
same,relative viability,NCI-H1975; first compound 2.53 µM,0.275
same,relative viability,NCI-H727; first compound 0.08 µM,0.361
same,relative viability,NCI-H727; first compound 0.8 µM,0.398
same,relative viability,NCI-H727; first compound 2.53 µM,0.403
same,relative viability,NCI-H1355; first compound 0.08 µM,0.367
same,relative viability,NCI-H1355; first compound 0.253 µM,0.336
same,relative viability,NCI-H1355; first compound 0.8 µM,0.38
same,relative viability,NCI-H1355; first compound 2.53 µM,0.291
same,relative viability,NCI-H2085; first compound 0.08 µM,0.587
same,relative viability,NCI-H2085; first compound 0.253 µM,0.436
same,relative viability,NCI-H2085; first compound 0.8 µM,0.432
same,relative viability,NCI-H2085; first compound 2.53 µM,0.314
same,relative viability,NCI-H2126; first compound 0.08 µM,0.458
same,relative viability,NCI-H2126; first compound 0.253 µM,0.44
same,relative viability,NCI-H2126; first compound 0.8 µM,0.478
same,relative viability,NCI-H2126; first compound 2.53 µM,0.392
same,relative viability,PC-14; first compound 0.08 µM,0.833
same,relative viability,PC-14; first compound 0.253 µM,0.707
same,relative viability,PC-14; first compound 0.8 µM,0.671
same,relative viability,PC-14; first compound 2.53 µM,0.597
same,relative viability,201T; first compound 0.08 µM,0.78
same,relative viability,201T; first compound 0.253 µM,0.648
same,relative viability,201T; first compound 0.8 µM,0.685
same,relative viability,201T; first compound 2.53 µM,0.569
same,relative viability,NCI-H647; first compound 0.08 µM,0.446
same,relative viability,NCI-H647; first compound 0.253 µM,0.433
same,relative viability,NCI-H647; first compound 0.8 µM,0.386
same,relative viability,NCI-H647; first compound 2.53 µM,0.372
same,relative viability,NCI-H1395; first compound 0.08 µM,1.02
same,relative viability,NCI-H1395; first compound 0.253 µM,0.974
same,relative viability,NCI-H1395; first compound 0.8 µM,1.11
same,relative viability,NCI-H1395; first compound 2.53 µM,0.944
same,relative viability,LU99A; first compound 0.08 µM,0.678
same,relative viability,LU99A; first compound 0.253 µM,0.521
same,relative viability,LU99A; first compound 0.8 µM,0.524
same,relative viability,LU99A; first compound 2.53 µM,0.542
same,relative viability,HCC-44; first compound 0.08 µM,1.04
same,relative viability,HCC-44; first compound 0.253 µM,0.843
same,relative viability,HCC-44; first compound 0.8 µM,0.927
same,relative viability,HCC-44; first compound 2.53 µM,0.924
same,relative viability,LOU-NH91; first compound 0.08 µM,0.811
same,relative viability,LOU-NH91; first compound 0.253 µM,0.769
same,relative viability,LOU-NH91; first compound 0.8 µM,0.745
same,relative viability,LOU-NH91; first compound 2.53 µM,0.742
same,relative viability,HCC-366; first compound 0.08 µM,0.307
same,relative viability,HCC-366; first compound 0.253 µM,0.28
same,relative viability,HCC-366; first compound 0.8 µM,0.327
same,relative viability,HCC-366; first compound 2.53 µM,0.259
same,relative viability,NCI-H2087; first compound 0.08 µM,0.198
same,relative viability,NCI-H2087; first compound 0.253 µM,0.168
same,relative viability,NCI-H2087; first compound 0.8 µM,0.215
same,relative viability,NCI-H2087; first compound 2.53 µM,0.147
same,relative viability,SK-MES-1; first compound 0.08 µM,0.554
same,relative viability,SK-MES-1; first compound 0.253 µM,0.5
same,relative viability,SK-MES-1; first compound 0.8 µM,0.489
same,relative viability,SK-MES-1; first compound 2.53 µM,0.459
same,relative viability,BEN; first compound 0.08 µM,1.07
same,relative viability,BEN; first compound 0.253 µM,1.01
same,relative viability,BEN; first compound 0.8 µM,1.19
same,relative viability,BEN; first compound 2.53 µM,0.88
same,relative viability,NCI-H322M; first compound 0.08 µM,0.601
same,relative viability,NCI-H322M; first compound 0.253 µM,0.526
same,relative viability,NCI-H322M; first compound 0.8 µM,0.555
same,relative viability,NCI-H322M; first compound 2.53 µM,0.48
